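Step 1: Grow cells in 96-well plates. Step 2: Expose to compound for 48 hours at 5 concentrations. Step 3: Interpolate endpoints linearly; if unreached, use highest concentration. GI50 marks 50% less growth. The concentration for full growth arrest is given as TGI.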
How the values were obtained:
Assay in all cases: NCI tumour cell line growth inhibition, 48 h
[1] = system: OVCAR-4 ovarian
[2] = system: KM12 colon
[3] = system: UACC-257 melanoma
[4] = system: SNB-78 CNS
[5] = system: ACHN renal
[6] = system: SNB-19 CNS
[7] = system: LOX IMVI melanoma
[8] = system: A549 NSCLC
[9] = system: SF-295 CNS
[10] = system: PC-3 prostate

Structure (SMILES): O=C(Cc1nc2c3c(ccc2[nH]c1=O)C(=O)c1ccccc1C3=O)C(=O)Nc1ccccc1[N+](=O)[O-]
- TGI [1]: 32.4 µM
- TGI [2]: 43 µM
- TGI [3]: 37 µM
- TGI [4]: 16.5 µM
- TGI [5]: 33.9 µM
- TGI [6]: 32.9 µM
- TGI [7]: 44.8 µM
- TGI [8]: > 100 µM

Structure (SMILES): N#CC1=C(c2ccccc2)NNC(c2ccc(Cl)cc2)CC1=O (centres undefined)
- TGI [1]: > 100 µM
- TGI [2]: > 100 µM
- TGI [3]: > 100 µM
- TGI [4]: > 100 µM
- TGI [5]: > 100 µM
- TGI [6]: > 100 µM
- TGI [7]: > 100 µM
- TGI [8]: > 100 µM
- TGI [9]: 73.1 µM

Structure (SMILES): COc1ccc(CC2c3c(cc(OC)c(OC)c3OC)CCN2C)cc1OC (centres undefined)
- TGI [1]: > 100 µM
- TGI [2]: > 100 µM
- TGI [3]: > 100 µM
- TGI [4]: > 100 µM
- TGI [5]: > 100 µM
- TGI [6]: > 100 µM
- TGI [8]: > 100 µM
- TGI [9]: > 100 µM

Structure (SMILES): CCOC(=O)C1(C(=O)OCC)COS(=O)OC1
- TGI [1]: 42.6 µM
- TGI [2]: > 100 µM
- TGI [3]: > 100 µM
- TGI [10]: > 100 µM
- TGI [5]: > 100 µM
- TGI [6]: > 100 µM
- TGI [7]: 28.4 µM
- TGI [8]: > 100 µM
- TGI [9]: > 100 µM

Structure (SMILES): O=C(O)c1cc(-c2ccc3c(O)c(O)ccc3c2)ccc1O
- TGI [1]: 27 µM
- TGI [2]: > 75 µM
- TGI [3]: > 75 µM
- TGI [10]: > 75 µM
- TGI [5]: > 75 µM
- TGI [6]: > 75 µM
- TGI [7]: 34.9 µM
- TGI [8]: > 75 µM
- TGI [9]: 29.1 µM

Structure (SMILES): O=C(Nc1ccccc1F)c1cc2ccc(O)cc2oc1=Nc1ccccc1F
- TGI [1]: 3.94 µM
- TGI [2]: 5.37 µM
- TGI [3]: 10.1 µM
- TGI [10]: 7.61 µM
- TGI [5]: 5.3 µM
- TGI [6]: 18.6 µM
- TGI [7]: 4.16 µM
- TGI [8]: 5.89 µM
- TGI [9]: 8.48 µM

Structure (SMILES): CC1CN=C(N(C(=O)Nc2ccc(F)c(Cl)c2)c2ccccc2)S1 (centres undefined)
- TGI [1]: > 100 µM
- TGI [2]: 78.3 µM
- TGI [3]: 58.7 µM
- TGI [10]: 95.5 µM
- TGI [5]: 87.9 µM
- TGI [6]: > 100 µM
- TGI [7]: 32.5 µM
- TGI [8]: 92.1 µM
- TGI [9]: > 100 µM

Structure (SMILES): O=c1ccn(C2OC(CO)C(P(=O)(O)O)C2O)c(=O)[nH]1 (centres undefined)
- TGI [1]: > 100 µM
- TGI [2]: > 100 µM
- TGI [3]: > 100 µM
- TGI [10]: > 100 µM
- TGI [5]: > 100 µM
- TGI [6]: > 100 µM
- TGI [7]: > 100 µM
- TGI [8]: > 100 µM
- TGI [9]: > 100 µM

Structure (SMILES): CC(=O)c1cccn1/C=C(\OC(=O)OC(C)(C)C)c1ccc[nH]1
- TGI [1]: > 100 µM
- TGI [2]: > 100 µM
- TGI [3]: > 100 µM
- TGI [10]: > 100 µM
- TGI [5]: > 100 µM
- TGI [6]: > 100 µM
- TGI [7]: > 100 µM
- TGI [8]: > 100 µM
- TGI [9]: > 100 µM

Structure (SMILES): Cc1cc(-c2nc3ccccc3s2)ccc1NC(=O)[C@@H](N)CCCCN
- TGI [1]: 21.3 µM
- TGI [2]: 8.03 µM
- TGI [3]: 37.8 µM
- TGI [10]: 30.1 µM
- TGI [5]: 30.8 µM
- TGI [6]: 29.4 µM
- TGI [7]: 5.92 µM
- TGI [8]: 12.7 µM
- TGI [9]: 10.6 µM

Structure (SMILES): C/C1=C\CC[C@@]2(C)O[C@@H]2C[C@@H](C2(C)CO2)CC/C(C)=C/CC1 (some centres undefined)
- TGI [1]: > 100 µM
- TGI [2]: 34.3 µM
- TGI [3]: > 100 µM
- TGI [10]: 82.2 µM
- TGI [5]: 35.1 µM
- TGI [6]: 41.3 µM
- TGI [7]: 28.8 µM
- TGI [8]: 36.5 µM
- TGI [9]: 51 µM

Structure (SMILES): COc1cc(-c2cc(=O)c3cc4c(=O)cc(-c5cc(OC)c(OC)c(OC)c5)oc4cc3o2)cc(OC)c1OC
- TGI [1]: > 100 µM
- TGI [2]: > 100 µM
- TGI [3]: > 100 µM
- TGI [10]: > 100 µM
- TGI [5]: > 85.1 µM
- TGI [6]: 59.6 µM
- TGI [7]: > 100 µM
- TGI [8]: > 100 µM
- TGI [9]: 40.6 µM

Structure (SMILES): COC(=O)c1c2c(cc3c1CCC3)CCC2
- TGI [1]: > 100 µM
- TGI [2]: > 100 µM
- TGI [3]: > 100 µM
- TGI [10]: > 100 µM
- TGI [5]: > 100 µM
- TGI [6]: > 100 µM
- TGI [7]: > 100 µM
- TGI [8]: > 100 µM
- TGI [9]: > 100 µM

Structure (SMILES): O=C(CNc1c(Cl)cccc1Cl)NC1C=Cc2ccc(S(=O)(=O)Nc3c(Cl)cccc3Cl)cc2C1=O (centres undefined)
- TGI [1]: > 100 µM
- TGI [2]: > 100 µM
- TGI [3]: > 100 µM
- TGI [10]: > 100 µM
- TGI [5]: > 100 µM
- TGI [6]: > 100 µM
- TGI [7]: > 100 µM
- TGI [8]: > 100 µM
- TGI [9]: > 100 µM

Structure (SMILES): Cc1cn(-c2cc(C(=O)Nc3cccc(-n4ccc5c(NC(=O)c6ccccc6)nccc54)c3)cc(C(F)(F)F)c2)cn1
- GI50 [1]: 1.17 µM
- TGI [1]: 18 µM
- GI50 [2]: 0.372 µM
- TGI [2]: 1.46 µM
- GI50 [3]: 0.51 µM
- TGI [3]: 19.7 µM
- GI50 [10]: 0.393 µM
- TGI [10]: 15.6 µM
- GI50 [5]: 0.549 µM
- TGI [5]: 8.7 µM
- GI50 [6]: 0.579 µM
- TGI [6]: 25.5 µM
- GI50 [7]: 0.379 µM
- TGI [7]: 2.07 µM
- GI50 [8]: 0.502 µM
- TGI [8]: 5.34 µM
- GI50 [9]: 0.306 µM
- TGI [9]: 1.44 µM

Structure (SMILES): COc1nc2ncc([C@@H](OC(C)=O)[C@@H](COC(C)=O)OC(C)=O)nc2c(=O)[nH]1
- TGI [1]: > 100 µM
- TGI [2]: > 100 µM
- TGI [3]: > 100 µM
- TGI [10]: > 100 µM
- TGI [5]: > 100 µM
- TGI [6]: > 100 µM
- TGI [7]: > 100 µM
- TGI [8]: > 100 µM
- TGI [9]: > 100 µM

Structure (SMILES): C[C@@H](Cl)[C@H]1CCCN(Cc2ccc(Br)cc2)C1
- TGI [1]: > 12.5 µM
- TGI [2]: > 12.5 µM
- TGI [3]: > 12.5 µM
- TGI [10]: > 12.5 µM
- TGI [5]: > 12.5 µM
- TGI [6]: > 12.5 µM
- TGI [7]: > 12.5 µM
- TGI [8]: > 12.5 µM
- TGI [9]: > 12.5 µM

Structure (SMILES): O=[N+]([O-])c1ccc(/C=C/c2cc(-c3ccccc3)nc3ccc4ccccc4c23)cc1
- TGI [1]: > 100 µM
- TGI [2]: > 100 µM
- TGI [3]: > 100 µM
- TGI [10]: > 100 µM
- TGI [5]: > 100 µM
- TGI [6]: > 100 µM
- TGI [7]: > 100 µM
- TGI [8]: > 100 µM
- TGI [9]: > 100 µM

From PubChem BioAssay (NCI)
